pEC50: −log10 of the molar value. Calls of active or inactive are those of the source. The rule behind the calls is not given here.
System: DRD oncogenic fibroblast cytotoxicity, fluorescence viability
Assay: killing of non-viral transformed DRD fibroblasts – cell-based, fluorescence viability readout, dose response (AID 2633)

Row | SMILES | EC50 | pEC50
1 | CCOc1ccc(CC(=O)Nc2ccc(NC(=O)c3ccco3)cc2)cc1OCC | > 6670 nM (inactive) | –
2 | O=C(CCCCCN1C(=O)c2cccc3cccc(c23)C1=O)NCc1cccnc1 | > 6670 nM (inactive) | –
3 | COc1ccc(CN(CCC(c2ccccc2)c2ccc(OC(C)C)cc2)C(=O)CCl)cc1OC (stereo not drawn) | – | 5.83
4 | C=CCOc1ccccc1CN(C(=O)CCl)c1ccc2c(c1)OCO2 | – | 5.61
5 | CC[C@@]1(O)C(=O)OCc2c1cc1n(c2=O)Cc2cc3ccccc3nc2-1 | – | 6.34
6 | CC(C)C(=O)Nc1ccc(C(=O)NCc2cccnc2)cc1 | > 6670 nM (inactive) | –
7 | Cc1cccnc1Nc1nc(-c2ccccn2)cs1 | – | 6.37
8 | Cc1ccc(C(=O)Sc2cccccc2=O)cc1 | – | 7.26
9 | Nc1nc(CCl)nc(Nc2ccc3ccccc3c2)n1 | – | 6.74
10 | COc1ccc(S(=O)(=O)N2CCOCC2)cc1NC(=O)CCNC(=O)c1ccc(Br)cc1 | > 6670 nM (inactive) | –
11 | COc1ccc(C[C@H]2NC[C@H](O)[C@H]2OC(C)=O)cc1 | – | 7.35
12 | CCc1ccc(/C=C2\SC(=S)N(CCC(=O)NCCCN3CCOCC3)C2=O)cc1 | – | 5.33
13 | Cc1cccc(Nc2nc(N)nc(CCl)n2)c1 | – | 5.66
14 | C=C1C(=O)O[C@@H]2C[C@@H](C)[C@@H]3C=CC(=O)[C@@]3(C)[C@@H](OC(=O)CC(=O)O[C@H]3[C@@H]4C(=C)C(=O)O[C@@H]4C[C@@H](C)[C@@H]4C=CC(=O)[C@]43C)[C@H]12 | – | 7.49
15 | Cc1ccc(Nc2nc(N)nc(CCl)n2)c(C)c1 | – | 6.30
16 | CCc1ccc(/C=C2/SC(=S)N(CCC(=O)Nc3cccnc3)C2=O)cc1 | > 6670 nM (inactive) | –
17 | O=C(COc1ccc(Cl)cc1)Nc1ccc(C(=O)NCc2cccnc2)cc1 | > 6670 nM (inactive) | –
18 | CC(=O)Nc1ccc(NC(=O)CN(c2cccc([N+](=O)[O-])c2)S(C)(=O)=O)cc1 | > 6670 nM (inactive) | –
19 | O=S(=O)(c1ccc2c(c1)C(=NO)c1cc(S(=O)(=O)N3CCCCC3)ccc1-2)N1CCCCC1 | – | 5.67
20 | O=C(N/N=C/c1cccnc1)c1ccc(NC(=O)C(c2ccccc2)c2ccccc2)cc1 | > 6670 nM (inactive) | –

Row | SMILES | EC50 | pEC50
21 | CC(Oc1ccc(Cl)cc1Cl)c1nc(-c2ccc(NC(=O)c3cccnc3)cc2)no1 (stereo not drawn) | > 6670 nM (inactive) | –
22 | CN1CCN(C(=O)CCCN2C(=O)/C(=C/c3cccc(Br)c3)SC2=S)CC1 | > 6670 nM (inactive) | –
23 | CC[C@@]1(O)C(=O)OCc2c1cc1n(c2=O)Cc2cc3c(N)cccc3nc2-1 | – | 6.89
24 | Cc1cccc(Nc2nc(N)nc(CCl)n2)c1C | – | 6.25
25 | COc1ccc(-c2nnc(NC(=O)c3ccc(S(=O)(=O)N4CCc5ccccc5C4)cc3)o2)cc1 | > 6670 nM (inactive) | –
26 | Oc1ccccc1N=Nc1nc(-c2ccccc2)c(-c2ccccc2)[nH]1 | – | 6.42
27 | CCN1/C(=C\C=C\C2=[N+](CC)c3ccccc3C2(C)C)C(C)(C)c2ccccc21 | – | 6.60
28 | C/C(=N\Nc1ncc(Cl)cc1Cl)c1ccccn1 | – | 7.71
29 | Cc1ccc(C2CC(c3cccs3)=NN2C(=O)CCl)cc1 (stereo not drawn) | – | 5.85
30 | O=C(Cc1ccc([N+](=O)[O-])cc1)N/N=C/c1ccc([N+](=O)[O-])o1 | > 6670 nM (inactive) | –
31 | COc1ccc(Cc2nc(-c3ccc(NC(=O)c4cccnc4)cc3)no2)cc1 | > 6670 nM (inactive) | –
32 | CCOc1ccc(Nc2nc(N)nc(CCl)n2)cc1 | – | 6.24
33 | Cc1ccc(N(C(=O)CCl)C(C(=O)NC2CCCCC2)c2cccnc2)cc1C (stereo not drawn) | – | 7.12
34 | Nc1nc(CCl)nc(Nc2cccc3ccccc23)n1 | – | 6.18
35 | COc1ccc(N(C(=O)CCl)C(C(=O)NCCc2ccccc2)c2cccs2)cc1 (stereo not drawn) | – | 6.35
36 | CC[C@@]1(O)C(=O)OCc2c1cc1n(c2=O)Cc2cc3c(NC(=O)CN)cccc3nc2-1 | – | 5.34
37 | CC[C@H]1CN2CCc3cc(OC)c(OC)cc3[C@@H]2C[C@@H]1C[C@H]1NCCc2cc(OC)c(OC)cc21 | – | 8.04
38 | COc1ccc(/C=N/NC(=O)c2[nH]c3ccc(Br)cc3c2-c2ccccc2)cc1 | – | 6.87
39 | Cc1cccc(OCC(=O)Nc2ccc(C(=O)NCc3cccnc3)cc2)c1 | > 6670 nM (inactive) | –
40 | CCc1ccc(/C=C2/SC(=S)N(CCC(=O)NCCCN3CCOCC3)C2=O)cc1 | – | 5.27

Row | SMILES | EC50 | pEC50
41 | O=C1SC(Cc2ccccc2)C(=O)N1c1ccccc1 (stereo not drawn) | > 6670 nM (inactive) | –
42 | COc1ccc(N(C(=O)CCl)C(C(=O)NCCc2ccccc2)c2cccs2)cc1Cl (stereo not drawn) | – | 7.60
43 | Cc1onc(C(=O)N2CCN(C(c3ccccc3)c3ccccc3)CC2)c1[N+](=O)[O-] | – | 5.89
44 | COc1cccc(N(C(=O)CCl)C(C(=O)NCCc2ccccc2)c2cccs2)c1 (stereo not drawn) | – | 6.55
45 | O=C(NCc1cccnc1)c1ccc(NC(=O)c2ccc([N+](=O)[O-])cc2)cc1 | > 6670 nM (inactive) | –
46 | COc1ccc(C(C(=O)NC2CCCCC2)N(C(=O)CCl)c2ccc(C)cc2)cc1 (stereo not drawn) | – | 6.13
47 | CC1=CC(=O)C=C(C)C1=NOc1ccccc1[N+](=O)[O-] | > 6670 nM (inactive) | –
48 | COC(=O)C[C@](O)(CCCC(C)(C)O)C(=O)O[C@@H]1C(OC)=C[C@]23CCCN2CCc2cc4c(cc2[C@H]13)OCO4 | – | 8.33
49 | CCCCCCCN(C(=O)CCl)c1cccc(C)c1 | – | 5.96
50 | COC(=O)[C@@H]1Cc2c([nH]c3ccccc23)C(C)(C)N1C(=O)CCl | – | 6.00
51 | O=C(NCc1cccnc1)c1ccc(NC(=O)c2cccc([N+](=O)[O-])c2)cc1 | > 6670 nM (inactive) | –
52 | COc1ccc(OC)c(Nc2nc(N)nc(CCl)n2)c1 | – | 5.82
53 | CC(C)c1onc(C(=O)N2CCN(C(c3ccccc3)c3ccccc3)CC2)c1[N+](=O)[O-] | – | 6.21
54 | O=C(CCl)N=c1sccn1Cc1ccccc1Cl | – | 6.90
55 | Cc1ccccc1Nc1nc(N)nc(CCl)n1 | – | 5.70
56 | COc1ccc(C(C(=O)NC2CCCCC2)N(C(=O)CCl)c2cccc(Cl)c2)cc1 (stereo not drawn) | – | 7.31
57 | CC[C@@]1(O)C(=O)OCc2c1cc1n(c2=O)Cc2cc3c(CN(C)C)c(O)ccc3nc2-1 | – | 6.09
58 | Cc1ccc(/C=C2\SC(=S)N(CCCC(=O)N3CCOCC3)C2=O)cc1 | > 6670 nM (inactive) | –

— PubChem BioAssay AID2633 (Broad Institute, 2010)
